Source: patent US20070141129A1, “Wound care product comprising a substance which inhibits the growth of bacteria in wounds” (priority 2003, published 2007)
“Also recorded” adds a separate entry of the source.

Experiments:
[1] = system: S. aureus (including MRSA), group A, B, C and G streptococci, enterococci (including VRE) and Pseudomonas aeruginosa; assay: growth of wound infection bacteria in nutrient-rich medium with added xylitol; type: cell-based; conditions: xylitol (1-10%) in nutrient-rich medium
Procedure: (§1) The bacterial strains were stored at −70° C. Immediately prior to each experiment, these strains were taken out and placed on a blood plate and incubated overnight at 35° C. The same incubator was used in all the experiments. After that, a loop of the colonies which had grown was incubated in brain heart infusion (BHI) broth for 18 hours. 100 μl of this broth were inoculated into 3-5 ml of fresh BHI broth with or without the addition of xylitol. Different contents of xylitol were added. As is evident from FIGS. 1-5, the contents of xylitol were 1%, 2.5%, 5% and 10%.
(§2) The transmittance or translucency was measured from hour 0, and after that every hour, for 6 hours on a Biolog turbidimeter from the company Biolog Inc., Hayward, Calif., USA. The growth of bacteria reduces the translucency, i.e. the lower the transmittance the greater the growth of the bacteria.
(§3) At 0 hours and at 6 hours, 100 μl of the broth were cultured and the number of live bacteria was counted. The transmittance value and the quantity of bacteria (colony forming units/ml) in tubes with and without xylitol were then compared.

[2] = toxicity assessed as so low; cited from earlier work
S. aureus [3] = conditions: cited from earlier work
[4] = system: beta-haemolytic streptococci, including group B streptococci; assay: growth of beta-haemolytic streptococci with xylitol; type: cell-based
Procedure: as §1, §2, §3

group B streptococci = assay: growth of group B streptococci in BHI broth with added xylitol; type: cell-based; conditions: xylitol added to BHI, 1-10% (FIG. 3)
Procedure: as §1, §2, §3

bacteria = conditions: bacteriological tests; cited from earlier work
[5] = children, clinical study; cited from earlier work
P. aeruginosa = assay: growth of P. aeruginosa in BHI broth with added xylitol; type: cell-based, Pseudomonas aeruginosa; conditions: xylitol added to BHI, 1-10% (FIG. 5)
Procedure: as §1, §2, §3

[6] = system: S. aureus (multiresistant), MRSA strain; assay: growth of multiresistant S. aureus (MRSA strain) in BHI broth with added xylitol (transmittance); type: cell-based, Staphylococcus aureus
Procedure: as §1, §2, §3

[7] = system: epithelial cells in the skin; conditions: cited from earlier work
[8] = system: intestinal bacteria which cause diarrhoea, bacteria which give rise to ear inflammations, yeast fungus; conditions: cited from earlier work
VRE = assay: growth of VRE with xylitol; type: cell-based, vancocin-resistant enterococci
Procedure: as §1, §2, §3

group G streptococci = assay: growth of group G streptococci in BHI broth with added xylitol; type: cell-based; conditions: xylitol added to BHI, 1-10% (FIG. 4)
Procedure: as §1, §2, §3

S. aureus [9] = assay: growth of S. aureus in BHI broth with added xylitol (transmittance); type: cell-based, Staphylococcus aureus
Procedure: as §1, §2, §3

alpha-streptococci = conditions: oral flora; uptake via fructose phosphotransferase system; cited from earlier work

OC[C@@H](O)[C@H](O)[C@@H](O)CO [xylitol]
reduction of growth, factor [1]: ≤ 1000 | limit value for an acceptable daily intake [2]: no limit value | production of glycocalyx (S. aureus [3]): decrease | effect against the bacteria [4]: also effective | inhibition of growth of the bacteria (group B streptococci): effectively inhibited | mutagenic properties (increase in natural mutation frequency) (bacteria): No mutagenic properties | reduction of the number of ear inflammations [5]: up to 40% | inhibition of growth of the bacteria (P. aeruginosa): effective in combating the growth; also recorded: very effective in inhibiting the growth | translucency after 6 hours ([6]; 10% added xylitol, 6 hours, without xylitol approx. 30% (FIG. 2)): more than 70% | inhibition of growth of the bacteria ([6]; xylitol added to nutrient solution, 1-10%): effective in combating the growth; also recorded: inhibited very effectively | absorption by epithelial cells in the skin [7]: only absorbed to a very slight extent | adherence of bacteria [8]: decreases the adherence | inhibition of growth of the bacteria (VRE): effective in combating the growth | inhibition of growth of the bacteria (group G streptococci): very effective in inhibiting the growth | bacterial growth after 2 hours (S. aureus [9]; BHI containing 10% added xylitol, 2 hours (FIG. 1)): hardly any bacterial growth at all | translucency (transmittance) after 6 hours (S. aureus [9]; BHI nutrient solution, 10% xylitol added, 6 hours, without xylitol 20 (FIG. 1)): more than 60% | growth of alpha-streptococci (alpha-streptococci): inhibited
